{"source": "paper PMC5668088", "about": "“A phase I clinical trial of binimetinib in combination with FOLFOX in patients with advanced metastatic colorectal cancer who failed prior standard therapy” (Oncotarget, 2017)", "key": {"[1]": {"system": "advanced solid tumors", "conditions": "twice daily, cited from earlier work"}, "[2]": {"conditions": "human, in vivo, po", "procedure": "A standard 3 + 3 dose-escalation design was followed using a continuous and intermittent oral binimetinib dosing schedule combined with fixed-dose FOLFOX. […] The continuous binimetinib dosing schedule was comprised of 2 dosing levels: 30 mg orally twice daily and 45 mg orally twice daily continuously starting on day 1 with FOLFOX, repeated every 2 weeks. The MTD of binimetinib continuous daily dosing was explored in an additional 6-patient cohort to investigate potential FOLFOX-binimetinib pharmacokinetic interactions. In addition, the MTD dose of binimetinib was explored further with FOLFOX in an intermittent sequential schedule in order to minimize treatment toxicity, with binimetinib twice daily on days 1–5 with FOLFOX on days 6–7 every 2 weeks. The starting dose of binimetinib on the intermittent arm was the MTD dose level identified on the continuous dosing schedule. Following standard dose-escalation rules, the maximum tolerated dose (MTD) for either schedule was defined as the highest dose level tested in which no more than 1 of 6 patients experienced a dose-limiting toxicity (DLT) in the dose-escalation phase. […] No intra-patient dosing escalations were allowed. No escalation beyond the previous binimetinib monotherapy recommended dose of 45 mg PO BID was allowed. […]"}, "[3]": {"conditions": "cited from earlier work"}, "[4]": {"parameters": "method as in ref 25 = [25]; 25 Grisham RN Gordon MS Harb WA Aghajanian C McMeekin DS McKinley K Anderson L Chavira R Christy-Bittel J Barrett E Moore KN A phase Ib dose-escalation study of binimetinib (MEK162) in combination wit", "conditions": "orally twice daily, cited from earlier work"}, "[5]": {"parameters": "method as in ref 19–24 = [19]; 19 Sosman JA Kittaneh M Lolkema MP Postow MA Schwartz G Franklin C Matano A Bhansali S Parasuraman S Kim K A phase 1b/2 study of LEE011 in combination with binimetinib (MEK162) in patients with NRAS-m || [20]; 20 Juric D Soria JC Sharma S Banerji U Azaro A Desai J A phase Ib open-label, multicenter, dose-escalation and-expansion study of orally administered binimetinib (MEK162) plus BYL719 in adult patients || [21]; 21 Chi P Qin L D’Angelo SP Dickson MA Gounder MM Keohan ML Shoushtari AN Condy MM Konen T Fruauff A DeMatteo RP Singer S Hwang S A phase Ib/II study of MEK162 (binimetinib [BINI]) in combination with || [22]; 22 Van Herpen C Postow MA Carlino MS Kalkavan H Weise A Amaria RN De Vos F Carvajal RD Matano A Bhansali S Lam L Yerramilli-Rao P Sosman JA A phase 1b/2 study of ribociclib (LEE011; CDK4/6 inhibitor) || [23]; 23 Dummer R Sandhu S Hassel JC Muñoz E Berking C Gesierich A Ascierto PA Esposito O Carter K Antona V Radhakrishnan R Cui X Caponigro G LOGIC2: Phase 2,multi-center, open-label study of sequential enc", "conditions": "oral twice daily, continuous dosing; five phase Ib/II trials; cited from earlier work"}, "[6]": {"system": "MEK1/2", "conditions": "preclinical; cited from earlier work"}, "[7]": {"system": "previously-treated mCRC", "parameters": "method as in ref 34 = [34]; 34 Bendell J Won KT Ean CC Yung-Jue B Lee C Desai J Lewin J Wallin J Das Thakur M Mwawasi G Cha E Infante J Safety and efficacy of cobimetinib (cobi) and atezolizumab (atezo) in a Phase 1b study of me", "conditions": "escalating doses of cobimetinib in combination with atezolizumab; 23 patients (4 responders); cited from earlier work"}, "[8]": {"conditions": "for Oxaliplatin T1/2, Avg STD: Table 4"}, "[9]": {"test": "5-FU plasma pharmacokinetics without and with binimetinib (LC-MS/MS)", "method": "Fluorouracil levels in plasma were determined using an LC-MS/MS analytical assay also in the APCF with LLOQ of 3 ng/mL from a 200 μL aliquot of plasma."}, "[10]": {"conditions": "Pt#1, Cycle 1 (without binimetinib)"}, "[11]": {"conditions": "Pt#2, Cycle 1 (without binimetinib)"}, "[12]": {"conditions": "Pt#2, Cycle 2 (with binimetinib)"}, "[13]": {"conditions": "Pt#3, Cycle 1 (without binimetinib)"}, "[14]": {"conditions": "Pt#3, Cycle 2 (with binimetinib)"}, "[15]": {"conditions": "Pt#4, Cycle 1 (without binimetinib)"}, "[16]": {"conditions": "Pt#4, Cycle 2 (with binimetinib)"}, "[17]": {"conditions": "Pt#5, Cycle 1 (without binimetinib)"}, "[18]": {"conditions": "Pt#5, Cycle 2 (with binimetinib)"}, "[19]": {"conditions": "Pt#6, Cycle 2 (with binimetinib)"}}, "note": "Read-outs that look alike come from different tables or passages of the source.", "data": [{"smiles": "Cn1cnc2c(F)c(Nc3ccc(Br)cc3F)c(C(=O)NOCCO)cc21", "note": "[binimetinib]", "values": [{"measurement": "Recommended phase II dose (RP2D) of oral binimetinib", "setting": "[1]; due to recurrent DLTs of retinal events", "value": 45, "unit": "mg"}, {"measurement": "MTD of single-agent oral binimetinib", "setting": "[1]; pretreated advanced solid tumors, first dose-escalation phase I study", "value": 60, "unit": "mg"}, {"measurement": "MTD of binimetinib in combination with FOLFOX", "setting": "[2]", "value": 45, "unit": "mg"}, {"measurement": "Patients with atrial fibrillation", "setting": "[3]; in vivo", "value": 1}, {"measurement": "Patients with irregular heart rate", "setting": "[3]; in vivo", "value": 1}, {"measurement": "Patients with grade 1–2 retinal adverse events", "setting": "[3]; phase II trial, binimetinib 45 mg twice daily, NRAS- or BRAF-mutated advanced melanomas", "value": 18, "unit": "%"}, {"measurement": "RP2D of binimetinib combined with paclitaxel", "setting": "[4]; continuous dosing, paclitaxel 80 mg/m^2 weekly 3 out of 4 weeks", "value": 30, "unit": "mg"}, {"measurement": "RP2D of binimetinib combined with paclitaxel", "setting": "[4]; intermittent dosing (days 1–5 weekly for 3 out of 4 weeks)", "value": 45, "unit": "mg"}, {"measurement": "MTD or RP2D of binimetinib in combination with various targeted agents", "setting": "[5]", "value": 45, "unit": "mg"}, {"measurement": "Inhibition of MEK and downstream phosphorylated ERK (pERK)", "setting": "[6]", "value": "nanomolar range"}]}, {"smiles": "O=C(c1ccc(F)c(F)c1Nc1ccc(I)cc1F)N1CC(O)([C@@H]2CCCCN2)C1", "note": "[cobimetinib]", "values": [{"measurement": "Partial responses", "setting": "[7]", "value": 17, "unit": "%"}]}, {"smiles": "O=C1[O][Pt]2([NH][C@@H]3CCCC[C@H]3[NH]2)[O]C1=O", "note": "[Oxaliplatin]", "values": [{"measurement": "Oxaliplatin AUC, Avg STD", "setting": "[8]; Cycle 1 (without binimetinib)", "value": "26580.5 4844.8 μg/L X hr"}, {"measurement": "Oxaliplatin T1/2, Avg STD", "setting": "[8]; Cycle 1 (without binimetinib)", "value": "37.1 11.7 36"}, {"measurement": "Oxaliplatin AUC, Avg STD", "setting": "[8]; Cycle 1 (without binimetinib), listed as oxaliplatin", "value": "26580.5 ± 4844.8", "unit": "μg/L X hr"}, {"measurement": "Oxaliplatin AUC, Avg STD", "setting": "[8]; Cycle 2 (with binimetinib)", "value": "32190.9 11861.2 μg/L X hr"}, {"measurement": "Oxaliplatin T1/2, Avg STD", "setting": "[8]; Cycle 2 (with binimetinib)", "value": "38.8 22.6 36"}, {"measurement": "Oxaliplatin AUC, Avg STD", "setting": "[8]; Cycle 2 (with binimetinib), listed as oxaliplatin", "value": "32190.9 ± 11861.2", "unit": "μg/L X hr"}, {"measurement": "Oxaliplatin AUC", "setting": "[8]; [10]", "value": 28618.0, "unit": "μg/L X hr"}, {"measurement": "Oxaliplatin Cmax", "setting": "[8]; [10]", "value": 536.0, "unit": "µg/L"}, {"measurement": "Oxaliplatin AUC", "setting": "[8]; [11]", "value": 31146.9, "unit": "μg/L X hr"}, {"measurement": "Oxaliplatin Cmax", "setting": "[8]; [11]", "value": 780.8, "unit": "µg/L"}, {"measurement": "Oxaliplatin AUC", "setting": "[8]; [12]", "value": 51036.0, "unit": "μg/L X hr"}, {"measurement": "Oxaliplatin Cmax", "setting": "[8]; [12]", "value": 590.0, "unit": "µg/L"}, {"measurement": "Oxaliplatin AUC", "setting": "[8]; [13]", "value": 25757.7, "unit": "μg/L X hr"}, {"measurement": "Oxaliplatin Cmax", "setting": "[8]; [13]", "value": 686.5, "unit": "µg/L"}, {"measurement": "Oxaliplatin AUC", "setting": "[8]; [14]", "value": 33953.4, "unit": "μg/L X hr"}, {"measurement": "Oxaliplatin Cmax", "setting": "[8]; [14]", "value": 726.5, "unit": "µg/L"}, {"measurement": "Oxaliplatin AUC", "setting": "[8]; [15]", "value": 18615.5, "unit": "μg/L X hr"}, {"measurement": "Oxaliplatin Cmax", "setting": "[8]; [15]", "value": 601.5, "unit": "µg/L"}, {"measurement": "Oxaliplatin AUC", "setting": "[8]; [16]", "value": 25138.7, "unit": "μg/L X hr"}, {"measurement": "Oxaliplatin Cmax", "setting": "[8]; [16]", "value": 748.5, "unit": "µg/L"}, {"measurement": "Oxaliplatin AUC", "setting": "[8]; [17]", "value": 28764.2, "unit": "μg/L X hr"}, {"measurement": "Oxaliplatin Cmax", "setting": "[8]; [17]", "value": 389.3, "unit": "µg/L"}, {"measurement": "Oxaliplatin AUC", "setting": "[8]; [18]", "value": 19805.3, "unit": "μg/L X hr"}, {"measurement": "Oxaliplatin Cmax", "setting": "[8]; [18]", "value": 583.5, "unit": "µg/L"}, {"measurement": "Oxaliplatin AUC", "setting": "[8]; [19]", "value": 31020.9, "unit": "μg/L X hr"}, {"measurement": "Oxaliplatin Cmax", "setting": "[8]; [19]", "value": 671.0, "unit": "µg/L"}, {"measurement": "Oxaliplatin average T1/2", "setting": "[8]; with binimetinib", "value": "38.8 ± 22.6", "unit": "h"}, {"measurement": "Oxaliplatin average T1/2", "setting": "[8]; without binimetinib", "value": "37.1 ± 11.7", "unit": "h"}]}, {"smiles": "O=c1[nH]cc(F)c(=O)[nH]1", "note": "[5-FU, Fluorouracil]", "values": [{"measurement": "5-FU steady-state level, Avg STD", "setting": "[9]; Cycle 2 (with binimetinib 45 mg BID continuous), plasma, PK cohort", "value": "597.6 ± 204.5", "unit": "ng/mL"}, {"measurement": "5-FU steady-state level", "setting": "[9]; [10]", "value": 353.0, "unit": "ng/mL"}, {"measurement": "5-FU steady-state level", "setting": "[9]; Pt#1, Cycle 2 (with binimetinib)", "value": 293.1, "unit": "ng/mL"}, {"measurement": "5-FU steady-state level", "setting": "[9]; [11]", "value": 524.0, "unit": "ng/mL"}, {"measurement": "5-FU steady-state level", "setting": "[9]; [12]", "value": 480.5, "unit": "ng/mL"}, {"measurement": "5-FU steady-state level", "setting": "[9]; [13]", "value": 627.5, "unit": "ng/mL"}, {"measurement": "5-FU steady-state level", "setting": "[9]; [14]", "value": 718.0, "unit": "ng/mL"}, {"measurement": "5-FU steady-state level", "setting": "[9]; [15]", "value": 427.5, "unit": "ng/mL"}, {"measurement": "5-FU steady-state level", "setting": "[9]; [16]", "value": 770.5, "unit": "ng/mL"}, {"measurement": "5-FU steady-state level", "setting": "[9]; [17]", "value": 621.0, "unit": "ng/mL"}, {"measurement": "5-FU steady-state level", "setting": "[9]; [18]", "value": 726.0, "unit": "ng/mL"}, {"measurement": "5-FU steady-state level", "setting": "[9]; Pt#6, Cycle 1 (without binimetinib)", "value": 428.0, "unit": "ng/mL"}, {"measurement": "Difference in 5-FU PK with vs without binimetinib", "setting": "[9]; in vivo", "value": "no significant differences"}]}]}
